Among the data in patent US4241069A, “3-Methylene flavanones and 3-methylene chromanones” (Miles Laboratories, Inc., priority 1979, dated 1980) are MIC values, retold here.

Test [1] has as its system A. fumigatus NRRL 163. In words: MIC, agar incorporation method. The format is cell-based. As to conditions: Aspergillus fumigatus, NRRL163, NRRL 163; 32° C., 48-72 hours; read-out: Minimal Inhibitory Concentration. The procedure: (§1) The compounds of the present invention were tested for their ability to inhibit the growth of microorganisms by in vitro tests. Generally the in vitro tests involve growing representative microorganisms under conditions favorable to such growth and measuring the effectiveness of one or more compounds in inhibiting or destroying the growth of the microorganisms. The microorganisms used include representative bacteria, fungi and yeasts.
(§2) A representative selection of the test microorganisms were cultured in a nutrient broth, such as, for example, Eugon, commercially available from Difco Laboratories, Detroit, Michigan. Bacteria and Candida species were cultured for 24 hours at 32°-37° C. and fungi were cultured for approximately one week at 32° C. Inocula were prepared by suspending the growth or spores from a slant culture in sufficient sterile normal (0.9 percent) saline or Eugon broth, to yield cell or spore concentrations of 1,000,000 cells per milliliter. Anaerobic bacteria were cultured for 48-72 hours at 32°-37° C. in a thioglycollate containing medium, for example, Fluid Thioglycollate medium or NIH thioglycollate broth, commercially available from Difco Laboratories.
(§3) The compounds of the present invention were tested for activity against bacteria, yeasts and fungi by the agar incorporation method described below. MA 1347, 3-(dimethylaminomethyl)flavanone (disclosed in U.S. Pat. No. 3,753,985) was used as a comparative standard along with controls for each solvent system used.
(§4) A series of agar plates containing two-fold dilutions of each compound to be tested, ranging in concentration from 100 to 3.1 mcg/ml of agar medium was prepared. Aliquots of each concentration (100, 50, 25, 12.5, 6.2, and 3.1) prepared in N,N-dimethylformamide or 50 percent aqueous DMF were added to liquid Eugon agar at 48° C. (one part test solution to 100 parts agar). In some cases, tests with further dilutions to 0.125 mcg/ml were conducted. The agar medium, containing the 3-methylene flavanone or chromanone compound to be tested, was then dispensed into petri dishes and allowed to solidify. The solidified plates were kept overnight at room temperatures to dry the surface of the agar.
(§5) The agar plates were then inoculated with a drop of the standardized cell or spore suspension. Inoculated plates were incubated at 32° C. The inhibition end-point or minimum inhibitory concentration (MIC) shown in Table D represent the lowest concentration of test compound which inhibited the growth of the microorganism. Visual determination of growth inhibition was used. Bacteria and yeast end-points were determined after 24 hours incubation; molds, dermatophytes and anaerobes after 48-72 hours incubation. MIC values shown as ranges represent the extremes found in repeat assays. Virtually all such values were written plus or minus one dilution, the accepted variation of a two-fold dilution assay.

Test [2] deals with C. albicans NRRL Y-477. The test is described as follows: MIC, agar incorporation method. As to conditions: Candida albicans, NRRLY477, 32° C., 24 hours, read-out: Minimal Inhibitory Concentration. Format: cell-based. The procedure: as §1, §2, §3, §4, §5
Test [3] has as its system C. guillermondii VM 42. The test is described as follows: MIC, agar incorporation method. Format: cell-based. As to conditions: 32° C., 24 hours; read-out: Minimal Inhibitory Concentration. The procedure: as §1, §2, §3, §4, §5
The subject of test [4] is C. krusei VM 29B. In words: MIC, agar incorporation method. Format: cell-based. As to conditions: Pichia kudriavzevii, VM29B; 32° C., 24 hours; read-out: Minimal Inhibitory Concentration. The method, then:
as §1, §2, §3, §4, §5

The test system of test [5] is C. tropicalis NRRL Y1410. The test is described as follows: MIC, agar incorporation method. Format: cell-based. As to conditions: Candida tropicalis, NRRLY1410; 32° C., 24 hours; read-out: Minimal Inhibitory Concentration. The procedure: as §1, §2, §3, §4, §5
Test [6] deals with Candida albicans ATCC 10231. The test is described as follows: MIC, agar incorporation method. The format is cell-based. The conditions noted are these: ATCC10231, C. albicans ATCC 10231, 32° C., 24 hours, read-out: Minimal Inhibitory Concentration. The procedure: as §1, §2, §3, §4, §5
The subject of test [7] is Escherichia coli ATCC 8739. The test is described as follows: MIC, agar incorporation method. Format: cell-based. The conditions noted are these: ATCC8739, 32° C., 24 hours, read-out: Minimal Inhibitory Concentration. The procedure:
as §1, §2, §3, §4, §5

The test system of test [8] is Microsporum gypseum ATCC 14683. The test is described as follows: MIC, agar incorporation method. Format: cell-based. The conditions noted are these: Nannizzia gypsea, ATCC14683, 32° C., 48-72 hours; read-out: Minimal Inhibitory Concentration. The method, then: as §1, §2, §3, §4, §5
Test [9] concerns Pseudomonas aeruginosa ATCC 14502. In words: MIC, agar incorporation method. The format is cell-based. The conditions noted are these: ATCC14502, 32° C., 24 hours, read-out: Minimal Inhibitory Concentration. The procedure: as §1, §2, §3, §4, §5
For test [10], the system named is Staphylococcus aureus ATCC 6538. In words: MIC, agar incorporation method. Format: cell-based. The conditions noted are these: Staphylococcus aureus, ATCC6538; S. aureus ATCC 6538; 32° C., 24 hours; read-out: Minimal Inhibitory Concentration. The method, then:
as §1, §2, §3, §4, §5

Test [11] has as its system Streptococcus faecalis ATCC 10541. The test is described as follows: MIC, agar incorporation method. The format is cell-based. The conditions noted are these: Enterococcus faecalis, ATCC10541; 32° C., 24 hours; read-out: Minimal Inhibitory Concentration. The method, then:
as §1, §2, §3, §4, §5

The test system of test [12] is T. mentagrophytes CDC. The test is described as follows: MIC, agar incorporation method. Format: cell-based. The conditions noted are these: Trichophyton mentagrophytes, 32° C., 48-72 hours, read-out: Minimal Inhibitory Concentration. The procedure:
as §1, §2, §3, §4, §5

Test [13] deals with T. mentagrophytes TM-2. The test is described as follows: MIC, agar incorporation method. Format: cell-based. The conditions noted are these: Trichophyton mentagrophytes, TM2, 32° C., 48-72 hours, read-out: Minimal Inhibitory Concentration. The procedure: as §1, §2, §3, §4, §5
Test [14] has as its system T. tonsurans ATCC 10217. The test is described as follows: MIC, agar incorporation method. Format: cell-based. As to conditions: Trichophyton tonsurans, ATCC10217; 32° C., 48-72 hours; read-out: Minimal Inhibitory Concentration. The method, then: as §1, §2, §3, §4, §5
For test [15], the system named is Trichophyton mentagrophytes ATCC 4807. The test is described as follows: MIC, agar incorporation method. Format: cell-based. As to conditions: ATCC4807, 32° C., 48-72 hours, read-out: Minimal Inhibitory Concentration. The method, then:
as §1, §2, §3, §4, §5

The subject of test [16] is S. aureus NRRL B2747. In words: MIC, agar incorporation method. The format is cell-based, Staphylococcus aureus. The conditions noted are these: Staphylococcus aureus, NRRLB2747, 32° C., 24 hours, read-out: Minimal Inhibitory Concentration. The procedure: as §1, §2, §3, §4, §5
The test system of test [17] is Bacteriodides fragilis ATCC 8482. The test is described as follows: MIC, agar incorporation method, anaerobic. The format is cell-based. The conditions noted are these: 48 hours at 35° C., GasPak Anaerobic Jar, read-out: Minimal Inhibitory Concentration. The method, then: as §1, §2, §3, §4, §5
(§6) *Anaerobic: 48 hours incubation at 35° C. GasPak Anaerobic Jar

Test [18] has as its system Clostridium sporogenes ATCC 11437. In words: MIC, agar incorporation method, anaerobic. Format: cell-based. As to conditions: ATCC11437, 48 hours at 35° C., GasPak Anaerobic Jar, read-out: Minimal Inhibitory Concentration. The procedure:
as §1, §2, §3, §4, §5, §6

Test [19] has as its system Propionobacterium acnes ATCC 6919. In words: MIC, agar incorporation method, anaerobic. The format is cell-based. The conditions noted are these: 48 hours at 35° C., GasPak Anaerobic Jar, read-out: Minimal Inhibitory Concentration. The method, then: as §1, §2, §3, §4, §5, §6
Test [20] relates to S. aureus NRRL B2747. The test is described as follows: MIC, agar incorporation method, anaerobic. Format: cell-based. The conditions noted are these: Staphylococcus aureus, NRRLB2747, 48 hours at 35° C., GasPak Anaerobic Jar, read-out: Minimal Inhibitory Concentration. The method, then: as §1, §2, §3, §4, §5, §6
The test system of test [21] is A. fumigatus NRRL 165. In words: MIC, agar incorporation method. Format: cell-based. The conditions noted are these: Aspergillus fumigatus, NRRL165, 32° C., 48-72 hours, read-out: Minimal Inhibitory Concentration. The procedure:
as §1, §2, §3, §4, §5

Test [22] relates to Aspergillus niger ATCC 16404. The test is described as follows: MIC, agar incorporation method. Format: cell-based. As to conditions: ATCC16404, 32° C., 48-72 hours, read-out: Minimal Inhibitory Concentration. The procedure:
as §1, §2, §3, §4, §5

In test [23] the test system is T. rubrum ATCC 10218. In words: MIC, agar incorporation method. As to conditions: Trichophyton rubrum, ATCC10218; 32° C., 48-72 hours; read-out: Minimal Inhibitory Concentration. Format: cell-based. The procedure:
as §1, §2, §3, §4, §5

≈ marks a conversion by molar mass, not a printed value.

For `C=C1C(=O)c2ccccc2OC1c1ccccc1` (stereo not drawn) [Ex. 1, 3-methylene flavanone], the MIC in [1] turned out to be 6.2 µg/mL (≈ 26.2 µM); in [2], 50 µg/mL (≈ 212 µM); in [3] it was 100 µg/mL (≈ 423 µM); in test [4], 50 µg/mL (≈ 212 µM); in test [5] it was 100 µg/mL (≈ 423 µM); in test [6] it was 50 µg/mL (≈ 212 µM). Also, the MIC in test [7] is above 100 µg/mL; in test [8], 6.2 to 12.5 µg/mL (≈ 26.2 to 52.9 µM); in test [9], above 100 µg/mL; in test [10], 6.2 µg/mL (≈ 26.2 µM); in test [11] it was 100 µg/mL (≈ 423 µM); in test [12], 12.5 µg/mL (≈ 52.9 µM). For the same molecule, the MIC in test [13] is 12.5 µg/mL (≈ 52.9 µM); in test [14] it was 6.2 µg/mL (≈ 26.2 µM); in test [15], 12.5 µg/mL (≈ 52.9 µM); in test [16], 12.5 µg/mL (≈ 52.9 µM); in test [17] it was 1.56 µg/mL (≈ 6.6 µM); in [18] it was 12.5 µg/mL (≈ 52.9 µM). Besides, the results for the MIC in [19] and in [20] were 12.5 µg/mL (≈ 52.9 µM) and 25 µg/mL (≈ 106 µM), respectively.

As for `C=C1C(=O)c2ccccc2OC1c1ccc(N(C)C)cc1` (stereo not drawn) [Ex. 11, 4'-dimethylamino-3-methylene flavanone], the MIC in [21] is above 100 µg/mL; in test [22] it was above 100 µg/mL; in [2], above 100 µg/mL; in test [3], above 100 µg/mL; in test [4], 100 µg/mL (≈ 358 µM); in test [5], above 100 µg/mL. Moreover, the MIC in [6] was above 100 µg/mL; in test [7], above 100 µg/mL; in test [8], 25 µg/mL (≈ 89.5 µM); in [9] it was above 100 µg/mL; in [10], 50 µg/mL (≈ 179 µM); in test [11], above 100 µg/mL. In addition, the MIC in test [12] was 25 µg/mL (≈ 89.5 µM); in test [13], 25 µg/mL (≈ 89.5 µM); in test [23] it was 12.5 µg/mL (≈ 44.7 µM); in test [15], 25 µg/mL (≈ 89.5 µM); in test [16] it was 50 µg/mL (≈ 179 µM).

For `C=C1C(=O)c2ccccc2OC1c1ccc(C#N)cc1` (stereo not drawn) [Ex. 16, 4'-cyano-3-methylene flavanone], the MIC in test [21] was determined as 100 µg/mL (≈ 383 µM); in test [22], 50 µg/mL (≈ 191 µM); in test [2] it was 50 µg/mL (≈ 191 µM); in test [3], 100 µg/mL (≈ 383 µM); in test [4], 50 µg/mL (≈ 191 µM); in test [5] it was 50 µg/mL (≈ 191 µM). The MIC in test [6] was 50 µg/mL (≈ 191 µM); in test [7] it was above 100 µg/mL; in [8], 12.5 µg/mL (≈ 47.8 µM); in test [9], above 100 µg/mL; in test [10], 12.5 µg/mL (≈ 47.8 µM); in [11], 100 µg/mL (≈ 383 µM). For the same molecule, the MIC in test [12] was 25 µg/mL (≈ 95.7 µM); in [13], 12.5 µg/mL (≈ 47.8 µM); in test [23], 6.2 µg/mL (≈ 23.7 µM); in test [15], 12.5 µg/mL (≈ 47.8 µM); in [16], 12.5 µg/mL (≈ 47.8 µM).
